# pIC50: −log10 of the molar value.
# Experiments:
# melatonin ML1a receptor = biological target: T1, melatonin ML1a receptor (Homo sapiens, UniProt P48039); test: Melatonergic receptor binding, 2-[125I]-iodomelatonin, ML1a; details: NIH-3T3 membranes, 0.1 nM 2-[125I]-iodomelatonin, 37° C. 1 hour
# T1 construct: expressed in transfected cells; membrane homogenates
# Procedure: (§1) Melatonergic Receptor Binding Activity
# (§2) (a) TME=50 mM Tris buffer containing 12.5 mM MgCl2, and 2 mM EDTA, pH 7.4 at 37° C., with concentrated HCl.
# (§3) (b) Wash buffer: 20 mM Tris base containing 2 mM MgCl2, pH 7.4 at room temperature.
# (§4) (c) 10^−4 M melatonin (10^−5 M final concentration).
# (d) 2-[^125I]-iodomelatonin ML1a, 0.1 nM final concentration.
# (§5) 2. Membrane Homogenates: The melatonin ML1a and ML1b receptors cDNA were individually subcloned into pcDNA3 and introduced into NIH-3T3 cells using Lipofectamine. Transformed NIH-3T3 cells resistant to geneticin (G-418) were isolated, and single colonies expressing high levels of 2[^125I]-iodomelatonin binding were isolated. Cells are maintained in DMEM supplemented with 10% calf serum and G-418 (0.5 g/liter). Cells are grown to confluency in T-175 flasks, scraped using Hank's balanced salt solution, and frozen at −80° C. For preparing membrane homogenates, pellets are thawed on ice, and re-suspended in TME buffer in the presence of 10 μg/ml aprotinin and leupeptin, and 100 μM phenylmethylsulfonylfluoride. The cells were then homogenized using a dounce homogenizer, and centrifuged. The resulting pellet was re-suspended with dounce homogenizer in TME (supplemented with the above protease inhibitors) and frozen. On the day of assay, a small aliquot was thawed on ice and re-suspended in the ice cold TME (1:50-1:100 v/v) and held on ice until assayed.
# (§6) 3. Incubation: 37° C. for 1 hour. Reaction is terminated by filtration. Filters were washed 3 times.
# (§7) 4. References: Reppert, S. M. et al., Neuron, 13, p. 1177-1185 (1994); and Reppert, S. M. et al., Proc. Natl. Acad. Sci. USA, 92, p. 8734-8738 (1995).
# (§8) The compounds of the present invention have affinity for receptors of the endogenous pineal hormone, melatonin, as determined in receptor binding assays described above in Tables I to III for the ML1a and ML1b (human) receptors. Melatonin is involved in the regulation of a variety of biological rhythms and exerts its biological effects via interaction with specific receptors. There is evidence that administration of melatonin agonists are of clinical utility in the treatment of various conditions regulated by melatonin activity. Such conditions include depression, jet-lag, work-shift syndrome, sleep disorders, glaucoma, some disorders associated with reproduction, cancer benign prostatic hyperplasia, immune disorders, and neuroendocrine disorders.
# melatonin ML1b receptor = biological target: T2, melatonin ML1b receptor (Homo sapiens, UniProt P49286); test: Melatonergic receptor binding, 2-[125I]-iodomelatonin, ML1b; details: NIH-3T3 membranes, 0.2 nM 2-[125I]-iodomelatonin, 37° C. 1 hour
# T2 construct: expressed in transfected cells; membrane homogenates
# T2 sequence (P49286 1-362): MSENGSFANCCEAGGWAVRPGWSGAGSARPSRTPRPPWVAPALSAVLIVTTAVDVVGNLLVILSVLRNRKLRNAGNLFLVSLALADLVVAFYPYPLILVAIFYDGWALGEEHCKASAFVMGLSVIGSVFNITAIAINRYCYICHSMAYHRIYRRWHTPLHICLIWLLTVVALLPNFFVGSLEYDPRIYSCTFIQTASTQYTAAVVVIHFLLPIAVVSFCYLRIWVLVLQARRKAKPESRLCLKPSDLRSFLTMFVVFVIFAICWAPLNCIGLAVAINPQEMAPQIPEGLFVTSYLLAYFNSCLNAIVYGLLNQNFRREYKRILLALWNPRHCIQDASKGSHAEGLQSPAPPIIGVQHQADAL
# Procedure: as §1, §2, §3, §4
# (e) 2-[^125I]-iodomelatonin ML1b, 0.2 nM final concentration.
# as §5, §6, §7, §8
# T1 sequence (P48039 whole entry): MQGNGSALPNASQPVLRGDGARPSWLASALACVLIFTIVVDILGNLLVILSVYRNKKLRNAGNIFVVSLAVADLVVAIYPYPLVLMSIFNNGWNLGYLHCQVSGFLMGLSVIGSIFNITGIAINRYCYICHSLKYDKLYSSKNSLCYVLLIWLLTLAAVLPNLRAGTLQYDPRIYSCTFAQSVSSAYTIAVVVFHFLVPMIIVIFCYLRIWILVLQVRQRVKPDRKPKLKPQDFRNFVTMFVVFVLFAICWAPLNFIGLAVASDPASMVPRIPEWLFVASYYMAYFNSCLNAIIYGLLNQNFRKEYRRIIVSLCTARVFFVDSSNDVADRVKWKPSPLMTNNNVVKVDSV
Molecule,pIC50 (melatonin ML1a receptor; Table II),pIC50 (melatonin ML1b receptor; Table II),pIC50 (melatonin ML1a receptor; Table I),pIC50 (melatonin ML1b receptor; Table I),other results
"CCc1nc2cccc([C@@H]3C[C@H]3CNC(=O)C3CC3)c2o1 [Example 80, N-{[(1R,2R)-2-(2-Ethylbenzoxazol-7-yl)cyclopropyl]methyl}cyclopropylcarboxamide]",,,,,pIC50 (melatonin ML1a receptor; Table III): > 8.00; pIC50 (melatonin ML1b receptor; Table III): > 8.00
"CCc1nc2cc(Br)cc(CCCNC(=O)c3ccccc3)c2o1 [Example 69, N-[3-(5-Bromo-2-ethylbenzoxazol-7-yl)propyl]benzamide]",< 6.60,< 6.60,,,
"CCCC(=O)NCCCc1cccc2nc(CCCCc3ccccc3)oc12 [Example 27, N-{3-[2-(4-Phenylbutyl)benzoxazol-7-yl]propyl}butanamide]",,,> 8.00,6.60 to 8.00,
"N-({(1R,2R)-2-[2-(Methylethyl)benzoxazol-7-yl]cyclopropyl}methyl)-3-methylbutanamide [Example 89]",,,,,pIC50 (melatonin ML1a receptor; Table III): > 8.00; pIC50 (melatonin ML1b receptor; Table III): > 8.00
"CCCc1nc2cccc(CCCNC(=O)C3CC3)c2o1 [Example 17, Cyclopropyl-N-[3-(2-propylbenzoxazol-7-yl)propyl]carboxamide]",,,6.60 to 8.00,6.60 to 8.00,
"CCc1nc2cc(-c3ccccc3)cc(CCCNC(C)=O)c2o1 [Example 65, N-[3-(2-Ethyl-5-phenylbenzoxazol-7-yl)propyl]acetamide]",< 6.60,6.60 to 8.00,,,
"CCc1nc2cc(-c3ccc(C(F)(F)F)cc3)cc(CCCNC(=O)c3ccccc3)c2o1 [Example 61, N-(3-{2-Ethyl-5-[4-(trifluoromethyl)phenyl]benzoxazol-7-yl}propyl)benzamide]",6.60 to 8.00,< 6.60,,,
"CCCC(=O)NCCCc1cccc2nc(C)oc12 [Example 3, N-[3-(2-Methyl-7-benzoxazolyl)propyl]butanamide]",,,> 8.00,> 8.00,
"C=Cc1cc(CCCNC(=O)c2ccccc2)c2oc(CC)nc2c1 [Example 71, N-[3-(2-Ethyl-5-vinylbenzoxazol-7-yl)propyl]benzamide]",< 6.60,< 6.60,,,
"CCc1nc2cc(-c3ccc(F)cc3)cc(CCCNC(C)=O)c2o1 [Example 58, N-[3-(2-Ethyl-5-(4-fluorophenyl)benzoxazol-7-yl)propyl]acetamide]",6.60 to 8.00,6.60 to 8.00,,,
"CCCc1nc2cccc([C@@H]3C[C@H]3CNC(=O)C3CC3)c2o1 [Example 90, N-{[(1R,2R)-2-(2-Propylbenzoxazol-7-yl)cyclopropyl]methyl}cyclopropylcarboxamide]",,,,,pIC50 (melatonin ML1a receptor; Table III): > 8.00; pIC50 (melatonin ML1b receptor; Table III): > 8.00
"CCCc1nc2cccc(CCCNC(=O)NCC)c2o1 [Example 18, (Ethylamino)-N-[3-(2-propylbenzoxazol-7-yl)propyl]carboxamide]",,,< 6.60,6.60 to 8.00,
"CC(=O)NCCCc1cccc2nc(C(C)C)oc12 [Example 34, N-{3-[2-(Methylethyl)benzoxazol-7-yl]propyl}acetamide]",,,6.60 to 8.00,6.60 to 8.00,
"CCc1nc2cccc([C@@H]3C[C@H]3CNC(=O)C(C)C)c2o1 [Example 79, N-{[(1R,2R)-2-(2-Ethylbenzoxazol-7-yl)cyclopropyl]methyl}-2-methylpropanamide]",,,,,pIC50 (melatonin ML1a receptor; Table III): > 8.00; pIC50 (melatonin ML1b receptor; Table III): > 8.00
"C=Cc1ccc2nc(CC)oc2c1CCCNC(C)=O [Example 43, N-Acetyl-7-(3-aminopropyl)-6-vinyl-2-ethylbenzoxazole]",6.60 to 8.00,> 8.00,,,
"O=C(NCCCc1cccc2nc(-c3ccccc3)oc12)C1CC1 [Example 23, Cyclopropyl-N-[3-(2-phenylbenzoxazol-7-yl)propyl]carboxamide]",,,6.60 to 8.00,6.60 to 8.00,
"CCc1nc2cccc(CCCNC(C)=O)c2o1 [Example 7, N-[3-(2-Ethylbenzoxazol-7-yl)propyl]acetamide]",,,6.60 to 8.00,> 8.00,

Molecule,pIC50 (melatonin ML1a receptor; Table II),pIC50 (melatonin ML1b receptor; Table II),pIC50 (melatonin ML1a receptor; Table I),pIC50 (melatonin ML1b receptor; Table I),other results
"CC(=O)NCCCc1cccc2ncoc12 [Example 31, N-(3-Benzoxazol-7-ylpropyl)acetamide]",,,6.60 to 8.00,6.60 to 8.00,
"CCc1nc2ccc(C)c(CCCNC(=O)c3ccccc3)c2o1 [Example 45, N-[3-(2-Ethyl-6-methylbenzoxazol-7-yl)propyl]benzamide]",6.60 to 8.00,6.60 to 8.00,,,
"CCc1nc2ccc(-c3ccc(F)cc3)c(CCCNC(=O)c3ccccc3)c2o1 [Example 48, N-{3-[2-Ethyl-6-(4-fluorophenyl)benzoxazol-7-yl]propyl}benzamide]",< 6.60,6.60 to 8.00,,,
"CC(=O)NCCCc1cccc2nc(CCCCc3ccccc3)oc12 [Example 25, N-{3-[2-(4-Phenylbutyl)benzoxazol-7-yl]propyl}acetamide]",,,> 8.00,6.60 to 8.00,
"N-({(1R,2R)-2-[2-(5-Phenylbutyl)benzoxazol-7-yl]cyclopropyl}methyl)acetamide [Example 94]",,,,,pIC50 (melatonin ML1a receptor; Table III): > 8.00; pIC50 (melatonin ML1b receptor; Table III): > 8.00
"CCc1nc2ccc(Br)c(CCCNC(C)=O)c2o1 [Example 42, N-Acetyl-7-(3-aminopropyl)-6-bromo-2-ethylbenzoxazole]",6.60 to 8.00,> 8.00,,,
"CCCC(=O)NC[C@@H]1C[C@H]1c1cccc2nc(CCC)oc12 [Example 86, N-{[(1R,2R)-2-(2-Propylbenzoxazol-7-yl)cyclopropyl]methyl}butanamide]",,,,,pIC50 (melatonin ML1a receptor; Table III): > 8.00; pIC50 (melatonin ML1b receptor; Table III): > 8.00
"CCc1nc2ccc(-c3ccccc3)c(CCCNC(=O)C3CC3)c2o1 [Example 57, Cyclopropyl-N-[3-(2-ethyl-6-phenylbenzoxazol-7-yl)propyl]carboxamide]",6.60 to 8.00,> 8.00,,,
"CCNC(=O)NCCCc1cccc2nc(C(C)C)oc12 [Example 39, (Ethylamino)-N-{3-[2-(methylethyl)benzoxazol-7-yl]propyl}carboxamide]",,,< 6.60,6.60 to 8.00,
"CC(C)c1nc2cccc(CCCNC(=O)C3CC3)c2o1 [Example 38, Cyclopropyl-N-{3-[2-(methylethyl)benzoxazol-7-yl]propyl}carboxamide]",,,6.60 to 8.00,< 6.60,
"CCc1nc2ccc(-c3ccccc3)c(CCCNC(C)=O)c2o1 [Example 55, N-[3-(2-Ethyl-6-phenylbenzoxazol-7-yl)propyl]acetamide]",> 8.00,> 8.00,,,
"CCNC(=O)NCCCc1cccc2nc(C)oc12 [Example 6, (Ethylamino)-N-[3-(2-methylbenzoxazol-7-yl)propyl]carboxamide]",,,6.60 to 8.00,6.60 to 8.00,
"CCCc1nc2cccc(CCCNC(=O)CC)c2o1 [Example 14, N-[3-(2-Propylbenzoxazol-7-yl)propyl]propanamide]",,,6.60 to 8.00,6.60 to 8.00,
"CC(=O)NC[C@@H]1C[C@H]1c1cccc2nc(C(C)C)oc12 [Example 83, N-({(1R,2R)-2-[2-(Methylethyl)benzoxazol-7-yl]cyclopropyl}methyl)acetamide]",,,,,pIC50 (melatonin ML1a receptor; Table III): 6.60 to 8.00; pIC50 (melatonin ML1b receptor; Table III): > 8.00
"CCc1nc2ccc(C)c(CCCNC(C)=O)c2o1 [Example 44, N-[3-(2-Ethyl-6-methylbenzoxazol-7-yl)propyl]acetamide]",6.60 to 8.00,6.60 to 8.00,,,
"CCc1nc2ccc(-c3ccco3)c(CCCNC(C)=O)c2o1 [Example 73, N-[3-(2-Ethyl-6-(2-furyl)benzoxazol-7-yl)propyl]acetamide]",> 8.00,> 8.00,,,
"CCC(=O)NC[C@@H]1C[C@H]1c1cccc2nc(CC)oc12 [Example 77, N-{[(1R,2R)-2-(2-Ethylbenzoxazol-7-yl)cyclopropyl]methyl}propanamide]",,,,,pIC50 (melatonin ML1a receptor; Table III): > 8.00; pIC50 (melatonin ML1b receptor; Table III): > 8.00

# Source: patent US6737431B2 (Bristol-Myers Squibb Company, priority 2002, dated 2004)
